Test [1] in a line: Inhibition of collagenase type 4 after 30 mins by fluorescence plate reader.
Test [2] addresses 72 kDa type IV collagenase (Homo sapiens, UniProt P08253). Description: Inhibition of human rheumatoid synovial fibroblasts gelatinase A after 30 mins by fluorescence plate reader.
In test [3] the target is Matrix metalloproteinase-9 (Homo sapiens, UniProt P14780). Description: Inhibition of human neutrophils gelatinase B after 30 mins by fluorescence plate reader.

Here are results for six compounds from ChEMBL document CHEMBL1159106, “Identification of potential and selective collagenase, gelatinase inhibitors from Crataegus pinnatifida” (Bioorg Med Chem Lett, 2010).

72 kDa type IV collagenase, sequence (P08253 whole entry): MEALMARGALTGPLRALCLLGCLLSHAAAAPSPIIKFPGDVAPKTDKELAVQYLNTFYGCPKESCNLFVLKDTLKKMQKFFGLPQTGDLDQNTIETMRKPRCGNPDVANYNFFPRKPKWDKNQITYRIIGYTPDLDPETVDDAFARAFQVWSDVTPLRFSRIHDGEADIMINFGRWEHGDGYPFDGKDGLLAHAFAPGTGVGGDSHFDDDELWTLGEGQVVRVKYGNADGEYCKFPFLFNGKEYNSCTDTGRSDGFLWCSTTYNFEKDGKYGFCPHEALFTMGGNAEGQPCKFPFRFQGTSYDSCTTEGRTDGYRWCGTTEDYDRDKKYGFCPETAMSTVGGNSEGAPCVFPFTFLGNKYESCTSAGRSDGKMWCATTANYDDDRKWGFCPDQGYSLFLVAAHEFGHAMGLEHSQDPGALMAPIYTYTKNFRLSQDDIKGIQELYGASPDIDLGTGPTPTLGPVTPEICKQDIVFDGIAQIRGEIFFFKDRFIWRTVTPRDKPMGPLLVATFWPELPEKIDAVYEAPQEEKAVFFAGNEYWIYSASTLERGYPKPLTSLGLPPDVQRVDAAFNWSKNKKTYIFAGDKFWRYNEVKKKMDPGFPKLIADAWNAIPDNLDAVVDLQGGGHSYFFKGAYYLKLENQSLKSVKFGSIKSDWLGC
Matrix metalloproteinase-9, sequence (P14780 whole entry): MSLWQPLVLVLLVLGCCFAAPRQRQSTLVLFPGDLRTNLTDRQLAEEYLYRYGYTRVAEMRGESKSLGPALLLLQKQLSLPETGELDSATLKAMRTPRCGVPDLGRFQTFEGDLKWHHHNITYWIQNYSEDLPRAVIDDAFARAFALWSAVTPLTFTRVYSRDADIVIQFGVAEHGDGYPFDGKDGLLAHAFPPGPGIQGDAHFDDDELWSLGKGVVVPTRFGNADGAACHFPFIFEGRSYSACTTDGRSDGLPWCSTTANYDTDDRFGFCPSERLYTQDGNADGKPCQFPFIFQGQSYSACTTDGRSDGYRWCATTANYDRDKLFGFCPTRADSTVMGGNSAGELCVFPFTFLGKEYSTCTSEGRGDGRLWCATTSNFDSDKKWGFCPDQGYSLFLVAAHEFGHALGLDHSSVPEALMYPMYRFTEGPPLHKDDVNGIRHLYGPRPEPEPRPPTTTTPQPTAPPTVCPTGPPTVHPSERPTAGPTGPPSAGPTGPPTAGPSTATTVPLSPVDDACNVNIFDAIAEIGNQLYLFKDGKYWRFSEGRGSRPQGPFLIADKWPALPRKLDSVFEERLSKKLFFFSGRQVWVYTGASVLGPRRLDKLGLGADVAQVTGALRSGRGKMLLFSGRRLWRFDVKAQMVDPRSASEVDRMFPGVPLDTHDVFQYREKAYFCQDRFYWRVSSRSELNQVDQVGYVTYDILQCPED

Consider `CC(C)C[C@H](NP(=O)(O)O[C@@H]1O[C@@H](C)[C@H](O)[C@@H](O)[C@H]1O)C(=O)N[C@@H](Cc1c[nH]c2ccccc12)C(=O)O` [PHOSPHORAMIDON], for which 7.63 µM corresponded to half-maximal inhibition in test [1] (IC50).
For the compound `[H]/N=C(\N/C(=N/[H])NCCCCCCNC(=N)NC(=N)Nc1ccc(Cl)cc1)Nc1ccc(Cl)cc1` [CHLORHEXIDINE], the concentration for half-maximal inhibition (IC50) in test [2] and in test [3] was 7.63 µM throughout.
As for `Oc1cc(O)c2c(c1)O[C@H](c1ccc(O)c(O)c1)[C@H](O)[C@H]2c1c(O)cc(O)c2c1O[C@H](c1ccc(O)c(O)c1)[C@H](O)[C@H]2c1c(O)cc2c(c1O)C[C@@H](O)[C@@H](c1ccc(O)c(O)c1)O2`, the half-maximal inhibitory concentration (IC50) in test [2] was 12.4 µM; in test [3] it was 27.3 µM; in test [1], 0.98 µM.
As for `Oc1cc(O)c2c(c1)O[C@H](c1ccc(O)c(O)c1)[C@H](O)[C@H]2c1c(O)cc(O)c2c1O[C@H](c1ccc(O)c(O)c1)[C@H](O)[C@H]2c1c(O)cc(O)c2c1O[C@H](c1ccc(O)c(O)c1)[C@H](O)C2` [PROCYANIDIN C1], the half-maximal inhibitory concentration (IC50) in test [2] was found to be 31.4 µM; in test [3] it was 53.2 µM; in test [1] it was 11.3 µM.
Take `Oc1cc(O)c2c(c1)O[C@H](c1ccc(O)c(O)c1)[C@H](O)[C@H]2c1c(O)cc(O)c2c1O[C@H](c1ccc(O)c(O)c1)[C@H](O)[C@H]2c1c(O)cc(O)c2c1O[C@H](c1ccc(O)c(O)c1)[C@H](O)[C@H]2c1c(O)cc(O)c2c1O[C@H](c1ccc(O)c(O)c1)[C@H](O)[C@H]2c1c(O)cc(O)c2c1O[C@H](c1ccc(O)c(O)c1)[C@H](O)C2`: the IC50 is 43.2 µM in test [2], 39.2 µM in test [3] and 21.4 µM in test [1].
For the compound `Oc1cc(O)c2c(c1)O[C@H](c1ccc(O)c(O)c1)[C@H](O)[C@H]2c1c(O)cc2c(c1O)C(c1c(O)cc(O)c3c1O[C@H](c1ccc(O)c(O)c1)[C@H](O)C3)[C@@H](O)[C@@H](c1ccc(O)c(O)c1)O2` (stereo not given in full), the half-inhibitory concentration (IC50) in test [2] was found to be 0.4 µM; in test [3], 2.3 µM; in test [1] it was 0.34 µM.
